From the METLIN SMRT retention time set (Domingo-Almenara et al. 2019)

Experiment: gradient 5% acetonitrile 3 min, to 50% in 2 min, to 85% in 15 min, held 3 min, 100 µL/min
Conditions: column: Zorbax Extend-C18 2.1 x 50 mm; eluents: water / acetonitrile, 0.1% formic acid
Outline: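 Pure standards were run in mixtures of ~100 molecules by HPLC coupled to a quadrupole time-of-flight mass spectrometer. The column was a Zorbax Extend-C18 (2.1 × 50 mm, 1.8 μm) at 100 μL/min, with water and acetonitrile each containing 0.1% formic acid, in positive and negative ionization mode. Dead and dwell volumes were 40 μL and 900 μL. Retention time was taken from computationally picked adduct peaks, each manually inspected, with data collected over 3 months.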

SMILES | RP-LC retention time [s]
Cc1noc2nc(C)n(CC(=O)NCc3ccc(F)cc3)c(=O)c12 | 735
Cc1nc(-c2cc(S(=O)(=O)NCC(=O)N3CCN(c4cccc(Cl)c4)CC3)c(C)s2)no1 | 829
COc1cccc(N2CCN(c3ccnc(SCC(=O)Nc4ccccc4F)n3)CC2)c1 | 789
CC(C)C(=O)N1CCc2cc(-c3ccc(C(=O)N4CCN(C(=O)c5ccco5)CC4)cc3)ccc21 | 830
C[C@H]1CN(C(=O)Cc2c[nH]c3ccccc23)C[C@@H]1c1nc(-c2cccnc2)no1 | 755
Cc1ccccc1N1CCN(C(=O)c2ccc3c(c2)CC(=O)N3C)CC1 | 839
CCOc1ccc(-n2c(=O)c3sccc3n(Cc3nc(-c4cccc(OCC)c4)no3)c2=O)cc1 | 1080
Cc1cccc2c3c(ccc12)C1=C(C(=O)C3=O)[C@@H](C)CO1 | 1200
NC(=O)C1Cc2ccccc2N1C(=O)c1ccc([N+](=O)[O-])o1 (stereo unspecified) | 633
Cc1ccc(Cl)cc1N1CCN(C(=O)Cn2nc(C(=O)N3CCCC3)c3ccccc32)CC1 | 1010
O=C1NCCc2c(OCC(=O)N3N=C(c4cccs4)CC3c3ccc(F)cc3)cccc21 (stereo unspecified) | 787
CCCS(=O)(=O)N1CCC(N2C[C@H](OC)[C@@H]2c2cccnc2)CC1 | 561
Cc1noc(C)c1-c1ccc(S(=O)(=O)NCCC(C)C)cc1 | 954
Cc1cc(C)c(C)c(S(=O)(=O)NC2CCN(c3ccc(=O)n(CC4CC4)n3)CC2)c1C | 1040
CCN1CCN(CCNC(=O)Cc2cccn2-c2ccc(Cl)cc2)CC1 | 612
COc1ccc(CNC(=O)C2CCCN(c3ccc(=O)n(-c4cccc(Cl)c4)n3)C2)cc1OC (stereo unspecified) | 798
COc1ccc2c(c1)C1(CCN(C(=O)Cc3ccc(Cl)cc3)C1)C(=O)N2C (stereo unspecified) | 873
Cc1ccc(C)c(NC(=O)c2cn(-c3ncccc3-c3nc(C4CC4)no3)cn2)c1 | 973
CCOc1ccc(Cc2nc(-c3ccc4c(c3)nc(C)c(=O)n4C)no2)cc1OCC | 970
O=C(CCc1c(-c2ccc(Cl)cc2)nc2ccccn12)NCCC1=CCCCC1 | 756
Cc1ccccc1C(=O)N1CCC2(CC1)NCc1ccccc1-n1ccnc12 | 609
CN(C)S(=O)(=O)c1ccc2c(c1)N(CC(=O)NCCc1cccs1)C(=O)C1CCCCN21 (stereo unspecified) | 876
CCn1c(C(=O)NCc2ccccc2Cl)cc2sc(Cl)cc21 | 1190
CCOCCCNC(=O)C1CCCN(c2ncc(-c3cccc(F)c3)cn2)C1 (stereo unspecified) | 902
COCCn1c(SCc2c(F)cccc2Cl)nnc1-c1cn(C)nc1OC | 683

SMILES | RP-LC retention time [s]
Cc1ccc(CN(C(=O)C(C)Oc2cccc(C)c2C)C2CCS(=O)(=O)C2)o1 (stereo unspecified) | 977
O=C(NCC1CCCO1)N1CCN(c2nc3ccccc3n(Cc3ccccc3)c2=O)CC1 (stereo unspecified) | 850
C=CCN1C(=O)COc2ccc(-c3csc(NC(=O)c4ccc(Br)cc4)n3)cc21 | 1120
CSc1ccc(CNC(=O)Cc2cn(C)c3ncccc23)cc1 | 686
CCOc1ccccc1C(=O)N1CCC2(CC1)NCc1ccccc1-n1ccnc12 | 572
COc1ccc(CCC(=O)Nc2cc(-c3cccnc3)no2)cc1 | 756
Cc1nnc(CNC(=O)c2cc(-c3cccs3)[nH]n2)o1 | 582
CC(C)Oc1ccc(-c2noc(CN3C(=O)C(C)Oc4ccccc43)n2)cc1 (stereo unspecified) | 1200
Cc1noc(-c2cc(=O)n(CC(=O)Nc3cccc(Cl)c3)c3ccccc23)n1 | 927
CCOC(=O)C1CCN(c2cc3c(cc2NC(=O)NC)n(C)c(=O)n3C)CC1 | 633
COc1cc(NC(=O)COc2cc(C)nc(N3CCCC3)n2)cc(OC)c1OC | 602
COc1ccc(NC(=O)N2[C@H]3CC[C@@H]2c2cncnc2C3)c(C)c1 | 634
CC(C(=O)N1CCN(C2CCCCC2)CC1)C1CCN(S(=O)(=O)c2cccs2)CC1 (stereo unspecified) | 664
CCCS(=O)(=O)N1CCCN(C2=NS(=O)(=O)C(c3ccc(Cl)cc3)=C2C)CC1 | 934
O=C(C1CCN(c2ncnc3c2oc2ccccc23)CC1)N1CCN(c2ccccc2F)CC1 | 832
CC1(O)CCOC2(CCN(Cc3cn[nH]c3-c3ccccc3)CC2)C1 (stereo unspecified) | 584
Cc1ccc(C(=O)N2CCCC(COc3ccc(C(=O)NC4CC4)cc3)C2)c(C)c1 (stereo unspecified) | 856
COc1ccc(-c2noc(C3CC(=O)N(c4ccc(C)c(C)c4)C3)n2)c(OC)c1 (stereo unspecified) | 932
O=C(Cn1ncc2c3ccccc3n(Cc3ccccc3)c2c1=O)N1CCN(c2ccccn2)CC1 | 693
Cc1ccc2c(c1)N(C(=O)Cn1ccn3nc(-c4ccc(F)cc4)c(CO)c3c1=O)CCO2 | 930
O=C(NCc1cccnc1-c1ccc(F)cc1)c1cccc(Br)c1 | 734
Cc1ccc(-c2nc(-c3ccc(-n4ccnc4)nc3)no2)cc1C | 857
COc1ccc(N/C=C2\C(=O)CCc3c2oc2cc(Cl)c(O)c(Cl)c32)cc1 | 1170
Cc1nn(C2CCS(=O)(=O)C2)c(C)c1S(=O)(=O)NCc1ccco1 (stereo unspecified) | 638

Now from value to molecule:

RP-LC retention time [s] | SMILES
588 | CC(C)CN1CCN(C(=O)c2nc(-c3ccnc(N4CCCCC4)c3)no2)CC1
697 | Cc1cc(C(=O)NCC(C)C)c2cccc(C)c2n1
587 | CC(=O)N1CCc2ccccc2C1C(=O)N1CCN(c2ccccn2)CC1 (stereo unspecified)
1060 | CC(C)Cc1cc(-c2nnc3sc(-c4ccc(N(C)C)cc4)nn23)n[nH]1
746 | Cc1oc(-c2[nH]ncc2C(=O)N(C)C)cc1S(=O)(=O)N1CCN(c2ccccc2)CC1
610 | COc1ccc(NC(=O)c2cn3c(n2)CCCC3)c(OC)c1
859 | O=C(C1CCN(S(=O)(=O)c2ccc(-c3noc(C4CC4)n3)cc2)CC1)N1CCCC1
983 | CCOc1cccc(-c2noc(Cn3c(=O)n(CC)c(=O)c4ccccc43)n2)c1
766 | COc1ccc(-n2ccn3cc(-c4ccc5c(c4)OCO5)nc3c2=O)cc1
1290 | COc1cc(-c2ccc(Nc3ccccc3C(=O)O)c(OC)c2)ccc1Nc1ccccc1C(=O)O
657 | CCn1cnc(S(=O)(=O)N2CCCC(C(=O)N3CCN(c4ncccn4)CC3)C2)c1 (stereo unspecified)
950 | COc1cc(Cl)ccc1C(=O)N1CCN(c2ccc(-c3nc(C)c(C)s3)cn2)CC1
742 | COc1ccc(-c2nc3ccccc3c3nnc(SCc4cn5ccccc5n4)n23)cc1
1040 | C=CCN(CC=C)C(=O)Cn1c(C)c(Cc2ccccc2)c(=O)n2nc(-c3ccccc3)nc12
940 | COc1ccc(NC(=O)C2CCN(S(=O)(=O)c3c(C)nn(-c4ccccc4)c3C)CC2)c(OC)c1
629 | COc1cc2c(cc1OC)C1C(C(=O)NCCCN3CCC(C)CC3)c3ccccc3C(=O)N1CC2 (stereo unspecified)
858 | Cc1onc(-c2ccccc2Cl)c1C(=O)N1CCC2(CC1)CC(=O)c1ccccc1O2
936 | Cc1[nH]nc(-c2cc(S(=O)(=O)NCC(C)c3ccccc3)c(C)s2)c1C (stereo unspecified)
982 | COc1cccc(CNC(=O)C2(C)CCCN(C(=O)Nc3cc(Cl)ccc3C)C2)c1 (stereo unspecified)

RP-LC retention time [s] | SMILES
1300 | COc1ccccc1N1CCN(S(=O)(=O)c2cc(-c3cc(C(F)(F)F)on3)sc2C)CC1
815 | O=C(NC1CCCCCC1)C1CCCN(S(=O)(=O)c2c[nH]c(C(=O)N3CCCC3)c2)C1 (stereo unspecified)
893 | CCn1nccc1C(=O)Nc1c(-c2ccccc2)nc2sc(N3CCCCC3)nn12
621 | COc1ccc(CC(=O)N2CCn3cnnc3C2)cc1Cl
707 | O=C(Cc1cccs1)Nc1nnc(Cc2ccc(F)cc2)o1
814 | COc1cc(C(=O)NCCc2c[nH]c3ccc(C)cc23)cc(OC)c1OC
728 | NC(=O)c1ccc(NC(=O)c2sc3ncccc3c2-n2cccc2)cc1
1030 | COC(=O)c1cc(C)sc1NC(=O)CC1Sc2ccc(C(F)(F)F)cc2NC1=O (stereo unspecified)
566 | COCCCNC(=O)c1ccc2c(c1)nc1n2CCCCC1
1000 | Cc1ccc(F)cc1S(=O)(=O)N1CCc2c(c(-c3nnc(-c4ccc(F)cc4)o3)nn2C)C1
1200 | Cc1ccc(CNC(=O)c2cc3sccc3n2Cc2ccc(Cl)cc2)cc1
1230 | O=S(=O)(c1ccc(F)c(F)c1)N1CCc2nc(-c3ccc(Cl)cc3)ncc2C1
594 | COc1ccc(-c2nnc(N3CCC(C(=O)NCCN(C)C)CC3)o2)cc1
719 | CC1CCCN(CC2CCN(S(=O)(=O)c3ccc4c(c3)CCC4)CC2)C1 (stereo unspecified)
869 | Cc1nc(N2CCOCC2)c2c(C(=O)Nc3cc(Cl)ccc3C)c(C)oc2n1
758 | CC(C)CCNC(=O)Cn1ccn2nc(-c3ccccc3)c(CO)c2c1=O
987 | CC1CCN(C(=O)c2cc3c(s2)CCN(C(=O)c2ccc(Cl)cc2)C3)CC1
807 | O=C(Nc1ccc(F)c(Cl)c1)c1cn2c(n1)CSCC2
